Results on two compounds are retold here after US10076535B2, “Use of CPG oligonucleotides co-formulated with an antibiotic to accelerate wound healing” (THE UNITED STATES OF AMERICA, as represented by the …, priority 2012, dated 2018).

Entries after “also recorded” stand apart in the source; their conditions may differ.

The subject of one series is BALB/c mice. In words: Murine in vivo wound repair model (6 mm full-thickness excisional punch biopsy). The settings on record: for effect on delay in wound healing caused by antibiotic: TLR ligand incorporated into / co-administered with antibiotic ointment; for effect on wound healing: simply applied over a pre-existing layer of antibiotic ointment or petrolatum. The method, then: The wound repair model of Devalaraja et al (J Invest Dermatol 2000; 115: 234-44) was used. Skin on the back was shaved and treated antibiotic ointment or petrolatum. In some studies, mice were injected s.c. at the base of the tail with 50 ug/g of vancomycin and imipenrm/cilastatin (Fernandez et al., Antimicrob Agents Chemother 2010; 54: 116-25, 2010). Fourteen days later, the mice were anesthetized by intraperitoneal injection of ketamine (80 μg/g) plus xylazine (10 ug/g). The skin on the back was gently cleaned with PBS. A 6 mm full-thickness excisional punch biopsy (including the Pannilulus carnosus) was taken using an ACU-PUNCH® (Fort Lauderdale, Fla.) from the right and left upper paravertebral region of each animal. Individual biopsy sites were coated with 100 μl of antibiotic ointment±50 μg CpG ODN and/or 5 μg IMQ, and then covered with nonadhesive sterile gauze (Sato et al., Wound Repair Regen 2010; 18: 586-93). Mice were wrapped with a form-fitting bandage to further protect the biopsy sites. Wound contraction was recorded every other day by digital photography and changes calculated using NIH Image J software (available on the internet, version 1.37). Each treatment was tested and results averaged in a minimum of five independent animals/group.
A well-established murine model of wound healing was used to evaluate the effect of antibiotic treatment on the rate of wound repair (Devalaraja et al., J Invest Dermatol 2000; 115: 234-44). Identical full-thickness excisional biopsies were taken from skin sites treated with either antibiotic ointment or petrolatum (different treatments were administered to contralateral sides of each animal). Sequential photographs provided a permanent record of the speed of wound closure. Untreated biopsy sites and sites treated with petrolatum (ointment control), healed at nearly identical rates.

A further series concerns IFNβ. In words: Quantitative RT-PCR of mRNA at the wound site. Type of series: in vivo, mice. The conditions noted are these: day 3 after biopsy. The method, then: (§1) Tissue from the biopsy site was excised, homogenized in Trizol, and extracted with chloroform. […] 1 μg of total RNA was reverse-transcribed using the QUANTITECT™ Reverse Transcription. Kit (QIAGEN®). Purified cDNA was used as the template for quantitative RT-PCR conducted using pre-designed primer/probe sets for interleucin (IL)-1β, CCL2, IFNa, IFNβ, basic fibroblast growth factor (FGF), transforming growth factor (TGF)β, and glyceraldehyde 3-phosphate dehydrogenase (GAPDH) (Applied Biosystems, Foster City, Calif.). Gene expression levels were analyzed using the STEPONEPLUS™ RT-PCR system (APPLIED BIOSYSTEMS®). All reagents and probes used in this system were purchased from APPLIED BIOSYSTEMS®.

For the next series, the system named is CCL2 mRNA. The series is described as follows: Quantitative RT-PCR of mRNA at the wound site. The format is in vivo, mice. The conditions noted are these: added to antibiotic ointment; day 3; p<0.05. On the procedure:
as §1

The test system of a further series is IFNa. In words: Quantitative RT-PCR of mRNA at the wound site. The format is in vivo, mice. The settings on record: day 3 after biopsy. The method, then:
as §1

The next series deals with b-FGF. The series is described as follows: Quantitative RT-PCR of mRNA at the wound site. The format is in vivo, mice. The settings on record: Bx sites on day 3. The method, then:
(§2) FIG. 6 is a bar graph of the effect of antibiotic ointment on the levels of b-FGF and TGFβ mRNA. Mice were treated as described in FIG. 3. Total RNA was extracted from the Bx sites on day 3. Quantitative RT-PCR was performed to detect b-FGF and TGFβ. Results represent the mean±SE of at least 4 independent samples/treatment group. *p<0.05 vs untreated group.
as §1

A further series concerns TGFβ. The series is described as follows: Quantitative RT-PCR of mRNA at the wound site. The conditions noted are these: Bx sites on day 3. The format is in vivo, mice. On the procedure:
as §2, §1

A further series concerns IL-1β mRNA. In words: Quantitative RT-PCR of mRNA at the wound site. The settings on record: added to antibiotic ointment; day 3; p<0.05. Type of series: in vivo, mice. The method, then:
as §1

For the next series, the system named is macaques. The conditions noted are these: topical administration; cited from earlier work.
Another series relates to mice. The conditions noted are these: topical administration; cited from earlier work.

In the case of `CC(C)Cn1cnc2c(N)nc3ccccc3c21` [IMQ, 1-isobutyl-1H-imidazo[4,5-c]quinolin-4-amine, reference compound], in the series on BALB/c mice, the “effect on delay in wound healing caused by antibiotic” value is recorded as “completely corrected the delay in wound healing; also recorded: reversed” and the “effect on wound healing” value is on record as “no effect on wound healing”. Further, the “expression of IFNβ at the biopsy site” value in the series on IFNβ is listed as “reversed”. For the same compound, the “effect on antibiotic-reduced CCL2 mRNA level” value in the series on CCL2 mRNA is listed as “to a lesser extent IMQ corrected these defects”. The “expression of IFNa at the biopsy site” value in the series on IFNa is reported as “reversed”. In addition, in the series with b-FGF, the “expression of b-FGF at the wound site” value is on record as “increased”. In the series with TGFβ, the “expression of mRNA encoding TGFβ” value is given as “up-regulated”.
Take “CpG ODN: Phosphorothioate K-type CpG ODN 1555, sequence GCTAGACGTTAGCGT, SEQ ID NO: 30 (DNA, all phosphorothioate, methylation of C not given here)”: the “effect on delay in wound healing caused by antibiotic” value in the series on BALB/c mice is “completely corrected the delay in wound healing; also recorded: reversed”. Also, the “effect on wound healing” value in the series on BALB/c mice is “no effect on wound healing”. Moreover, in the series with IFNβ, the “expression of IFNβ at the biopsy site” value is reported as “reversed”. Further, in the series on CCL2 mRNA, the “effect on antibiotic-reduced CCL2 mRNA level” value is on record as “corrected these defects”. Also, the “expression of IFNa at the biopsy site” value with IFNa is recorded as “reversed”. In addition, the “effect on antibiotic-reduced IL-1β mRNA level” value with IL-1β mRNA is reported as “corrected these defects”. Moreover, the “expression of b-FGF at the wound site” value in the series on b-FGF is reported as “increased”. Besides, the “expression of mRNA encoding TGFβ” value with TGFβ is “up-regulated”. For the same compound, the wound closure entry in the series with macaques and in the series on mice was “significantly accelerated wound closure” in each case.
